According to PubChem BioAssay (NCI):
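Briefly, cells in 96-well plates were exposed to five compound concentrations for 48 h, and endpoints were estimated by linear interpolation. TGI: concentration producing complete growth inhibition.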

Assays:
Assay in all cases: NCI anticancer screen, dose series, 48 h
786-0 renal = tested on: 786-0 renal
A498 renal = tested on: A498 renal
A549 NSCLC = tested on: A549 NSCLC
ACHN renal = tested on: ACHN renal
CCRF-CEM leukemia = tested on: CCRF-CEM leukemia
COLO 205 colon = tested on: COLO 205 colon
DLD-1 colon = tested on: DLD-1 colon
DMS 114 small cell lung = tested on: DMS 114 small cell lung
DMS 273 small cell lung = tested on: DMS 273 small cell lung
EKVX NSCLC = tested on: EKVX NSCLC
HCC-2998 colon = tested on: HCC-2998 colon
HL-60(TB) leukemia = tested on: HL-60(TB) leukemia
HOP-18 NSCLC = tested on: HOP-18 NSCLC
HT29 colon = tested on: HT29 colon
IGROV1 ovarian = tested on: IGROV1 ovarian
K-562 leukemia = tested on: K-562 leukemia
KM12 colon = tested on: KM12 colon
LOX IMVI melanoma = tested on: LOX IMVI melanoma
LXFL 529 NSCLC = tested on: LXFL 529 NSCLC
M14 melanoma = tested on: M14 melanoma
M19-MEL melanoma = tested on: M19-MEL melanoma
MALME-3M melanoma = tested on: MALME-3M melanoma
MOLT-4 leukemia = tested on: MOLT-4 leukemia
NCI-H226 lung = tested on: NCI-H226 lung
NCI-H23 lung = tested on: NCI-H23 lung
NCI-H460 lung = tested on: NCI-H460 lung
OVCAR-3 ovarian = tested on: OVCAR-3 ovarian
OVCAR-4 ovarian = tested on: OVCAR-4 ovarian
OVCAR-5 ovarian = tested on: OVCAR-5 ovarian
OVCAR-8 ovarian = tested on: OVCAR-8 ovarian
RPMI-8226 leukemia = tested on: RPMI-8226 leukemia
RXF 393 renal = tested on: RXF 393 renal
RXF-631 renal = tested on: RXF-631 renal
SF-268 CNS = tested on: SF-268 CNS
SF-295 CNS = tested on: SF-295 CNS
SF-539 CNS = tested on: SF-539 CNS
SK-MEL-28 melanoma = tested on: SK-MEL-28 melanoma
SK-MEL-5 melanoma = tested on: SK-MEL-5 melanoma
SK-OV-3 ovarian = tested on: SK-OV-3 ovarian
SN12C renal = tested on: SN12C renal
SNB-19 CNS = tested on: SNB-19 CNS
SNB-75 CNS = tested on: SNB-75 CNS
SNB-78 CNS = tested on: SNB-78 CNS
SR leukemia = tested on: SR leukemia
SW-620 colon = tested on: SW-620 colon
TK-10 renal = tested on: TK-10 renal
U251 CNS = tested on: U251 CNS
UACC-62 melanoma = tested on: UACC-62 melanoma
UO-31 renal = tested on: UO-31 renal
CAKI-1 renal = tested on: CAKI-1 renal
HCT-116 colon = tested on: HCT-116 colon
HCT-15 colon = tested on: HCT-15 colon
HOP-62 NSCLC = tested on: HOP-62 NSCLC
HOP-92 NSCLC = tested on: HOP-92 NSCLC
KM20L2 colon = tested on: KM20L2 colon
NCI-H522 lung = tested on: NCI-H522 lung
SK-MEL-2 melanoma = tested on: SK-MEL-2 melanoma
UACC-257 melanoma = tested on: UACC-257 melanoma
XF 498 CNS = tested on: XF 498 CNS

Measured: TGI

O=C1NC2CCC(C2)C1c1ccccc1 (stereo not given)
not listed: CAKI-1 renal | HCT-116 colon | HCT-15 colon | HOP-62 NSCLC | HOP-92 NSCLC | KM20L2 colon | NCI-H522 lung | SK-MEL-2 melanoma | UACC-257 melanoma | XF 498 CNS
> 100 µM: all other assays above

CCn1c(O)c(C=N)c(=O)n(CC)c1=O
not listed: RPMI-8226 leukemia | SR leukemia | U251 CNS | XF 498 CNS
> 100 µM: all other assays above

N=C(N)c1csc([C@@H]2O[C@H](CO)[C@@H](O)[C@H]2O)n1
not listed: 786-0 renal | A498 renal | COLO 205 colon | DMS 114 small cell lung | HT29 colon | OVCAR-3 ovarian | OVCAR-5 ovarian | UACC-62 melanoma | HOP-62 NSCLC | HOP-92 NSCLC | KM20L2 colon | NCI-H522 lung
> 100 µM: all other assays above

CCCn1c(SCC)c2cc3cc4ccccc4cc3cc2c1-c1nc(F)nc(F)n1
not listed: A498 renal | DLD-1 colon | HOP-18 NSCLC | U251 CNS | UACC-62 melanoma
> 100 µM: all other assays above
